Counter-ions that a name gives are not always drawn.
What was measured:
[1] = cited from earlier work; for Average weight loss/one year: vs. 3% placebo
[2] = Dissolution / solubility observations of ingredients

Row | Compound | patients with 5% weight loss/12 weeks [1] | patients with 10% weight loss/12 weeks [1] | Average weight loss/one year [1] | other results
1 | CNCCC(Oc1ccc(C(F)(F)F)cc1)c1ccccc1 (stereo not shown) [PROZAC, Fluoxetine] | – | – | – | evidence of weight loss ([1]; in vivo): No evidence of weight loss
2 | Glycerol ester of hydrogenated rosin [GEHR] | – | – | – | solubility in aqueous solutions [2]: poorly soluble
3 | CC1(C)O[C@@H]2[C@@H](CO[C@@]3(COS(N)(=O)=O)OC(C)(C)O[C@@H]23)O1 [TOPAMAX, Topiramate] | – | – | – | efficacy (vs. placebo) ([1]; in vivo): Minimal, if any efficacy
4 | CN[C@H]1CC[C@@H](c2ccc(Cl)c(Cl)c2)c2ccccc21 [ZOLOFT, Sertraline] | – | – | – | evidence of weight loss ([1]; in vivo): No evidence of weight loss
5 | CN1CCCC(n2nc(Cc3ccc(Cl)cc3)c3ccccc3c2=O)CC1 (stereo not shown) [Azelastine hydrochloride, Azelastine Hydrochloride] | – | – | – | time to dissolve in purified water with stirring ([2]; added as second ingredient after Purified Water): approximately 5 minutes
6 | CC(C)(N)Cc1ccccc1 [ADIPEX, Phentermine] | 80 % patients | 50 % patients | 10% | –
7 | C[C@H]1[C@H](c2ccccc2)OCCN1C.O=C(O)C(O)C(O)C(=O)O [ADIPOST] | 80 % patients | 50 % patients | 10% | –
8 | C[C@H]1[C@H](c2ccccc2)OCCN1C [BONTRIL, Phendimetrazine] | 80 % patients | 50 % patients | 10% | –
9 | C[C@H]1CNCCc2ccc(Cl)cc21 [BELVIQ, Lorcaserin] | – | – | – | weight loss/year vs. placebo ([1]; per year): 3-5%
10 | C[C@@H](Cc1ccccc1)N(C)Cc1ccccc1 [DIDREX, Benzphetamine] | 80 % patients | 50 % patients | 10% | –
11 | CCN(CC)C(C)C(=O)c1ccccc1 (stereo not shown) [TENUATE, Diethylpropion] | 80 % patients | 50 % patients | 10% | –
12 | CCCCCCCCCCC[C@@H](C[C@@H]1OC(=O)[C@H]1CCCCCC)OC(=O)[C@H](CC(C)C)NC=O [XENICAL, Orlistat] | – | – | – | weight loss (vs. placebo)/6 months ([1]; 6 months): 5%

From patent publication US20240122848A1, “APPETITE SUPPRESSANT” (priority 2017, published 2024)
